# US12479818B2, “Treatment of fibrosis with IRE1 small molecule inhibitors” (Cornell University, priority 2019, dated 2025)
# Molecular target: IRE1a (Homo sapiens, UniProt O75460)
# Assay: IRE1a Endoribonuclease Nanoluciferase Assay (XBP1 luciferase reporter in 293T cells)
# Format: cell-based
# Set-up: endogenous in cells; host or cells: 293T
# Conditions: XBP1 nanoluciferase reporter in 293T cells, ER stressor; tested as the salt named
# Procedure: Compounds disclosed herein were assessed for disruption of IRE1 signaling using a IRE1a Endoribonuclease Nanoluciferase Assay. […] About 24 hours later, the cells were transfected with Effectene. In a 15 mL tube, the following was added: 2 ug XBP1 luciferase reporter plasmid (PGK-Luc2-P2A-XBP1u-Nanoluciferase-PEST); 300 ul EC buffer; and 16 ul Enhancer, followed by incubation at room temp for 5 minutes. […] 2.6 mL cDMEM media was added. Old media was aspirated from the cells, followed by addition of 7 mL fresh media. Full transfection mixture was added dropwise to cells. Cells were incubated for 6 hours, followed by trypsinization, centrifugation and resuspension in 11 mL fresh cDMEM media. 100 μL of cells were plated per a well in a 96 well plate. A day later, ER stressors of choice +/− inhibitors were added. To harvest, media was aspirated from cells completely, then 50 uL 1× passive lysis buffer (Promega: E1941) was added per well and put on shaker (300 rpm) for 30 minutes at room temperature. […] 15 uL OneGlo (nanoluciferase kit, Promega N1630) was added. Plates were spun down, placed on shaker (300 rpm) for 10 minutes. Plates were read on luminometer, 1000 ms integration time per well. 15 uL Stop and Glo (nanoluciferase kit) was added. Plates were spun down, placed on shaker (300 rpm) for 10 minutes. Plates were read on luminometer, 1000 ms second integration time per well.
# IRE1a, sequence (O75460 19-977): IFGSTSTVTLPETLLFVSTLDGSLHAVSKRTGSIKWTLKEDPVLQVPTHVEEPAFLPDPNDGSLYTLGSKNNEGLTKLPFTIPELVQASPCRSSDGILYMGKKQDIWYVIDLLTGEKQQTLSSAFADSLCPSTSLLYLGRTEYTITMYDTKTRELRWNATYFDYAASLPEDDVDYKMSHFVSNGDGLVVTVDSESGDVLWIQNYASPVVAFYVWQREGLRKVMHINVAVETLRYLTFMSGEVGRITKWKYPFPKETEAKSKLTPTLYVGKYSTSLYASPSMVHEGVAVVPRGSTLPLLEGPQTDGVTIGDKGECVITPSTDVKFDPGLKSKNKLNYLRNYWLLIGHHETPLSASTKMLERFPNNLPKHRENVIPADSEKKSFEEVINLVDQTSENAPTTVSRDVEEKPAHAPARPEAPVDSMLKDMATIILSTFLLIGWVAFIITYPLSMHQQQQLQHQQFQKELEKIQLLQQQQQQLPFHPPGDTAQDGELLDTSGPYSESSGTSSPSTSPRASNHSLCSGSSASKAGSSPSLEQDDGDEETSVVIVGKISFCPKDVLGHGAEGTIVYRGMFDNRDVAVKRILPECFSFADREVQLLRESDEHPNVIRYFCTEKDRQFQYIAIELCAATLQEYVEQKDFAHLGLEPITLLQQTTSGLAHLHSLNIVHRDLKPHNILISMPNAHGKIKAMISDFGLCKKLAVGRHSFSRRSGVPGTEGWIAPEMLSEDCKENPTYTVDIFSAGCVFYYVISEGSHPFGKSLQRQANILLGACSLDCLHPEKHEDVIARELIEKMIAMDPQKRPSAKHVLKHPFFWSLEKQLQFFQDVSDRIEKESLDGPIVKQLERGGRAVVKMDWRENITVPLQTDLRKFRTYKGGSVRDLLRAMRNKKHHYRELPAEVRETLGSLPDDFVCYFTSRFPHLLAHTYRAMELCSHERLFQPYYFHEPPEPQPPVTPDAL
row,SMILES,EC50
1,"N[C@H]1CC[C@H](Nc2ncc3cc(-c4c(F)cc(NS(=O)(=O)c5ccccc5Cl)cc4F)ccc3n2)CC1 [Compound 62, N-(4-(2-(((1r,4r)-4-aminocyclohexyl)amino)quinazolin-6-yl)-3,5-difluorophenyl)-2-chlorobenzene-sulfonamide]",5 to 50 nM
2,"CCc1cc(-c2ccc(NS(=O)(=O)c3ccccc3Cl)nn2)cc2cnc(N[C@H]3CC[C@H](N(C)C)CC3)nc12 [Compound 64, 2-chloro-N-(6-(2-(((1r,4r)-4-(dimethylamino)cyclohexyl)amino)-8-ethylquinazolin-6-yl)pyridazin-3-yl)benzene-sulfonamide]",< 5 nM
3,"CCc1cc(-c2nnc(NS(=O)(=O)c3ccccc3Cl)cc2C)cc2cnc(N[C@H]3CC[C@H](N)CC3)nc12 [Compound 67, N-(6-(2-(((lr,4r)-4-aminocyclohexyl)amino)-8-ethylquinazolin-6-yl)-5-methylpyridazin-3-yl)-2-chlorobenzene-sulfonamide]",5 to 50 nM
4,CCc1cc(-c2ccc(NS(=O)(=O)c3ccccc3Cl)c(F)c2)cc2cnc(N[C@H]3CC[C@H](N(C)C)CC3)nc12 [Compound 69],< 5 nM
5,"CCc1cc(-c2ccc(NS(=O)(=O)c3ccccc3Cl)c(F)c2C)cc2cnc(N[C@H]3CC[C@H](N)CC3)nc12 [Compound 71, N-(4-(2-(((1r,4r)-4-aminocyclohexyl)amino)-8-ethylquinazolin-6-yl)-2-flouro-3-methylphenyl)-2-chlorobenzene-sulfonamide]",< 5 nM
6,CCc1cc(-c2ccc(NS(=O)(=O)c3ccccc3Cl)c(F)c2)cc2cnc(N[C@@H]3CC[C@@H](N)[C@H](C)C3)nc12 [Compound 74],< 5 nM
7,N[C@H]1CCC[C@@H](Nc2ncc3cc(-c4ccc(NS(=O)(=O)c5ccccc5Cl)c(F)c4)ccc3n2)C1 [Compound 75],100 to 10000 nM
8,"N[C@@H]1CC[C@@H](Nc2ncc3cc(-c4ccc(NS(=O)(=O)c5ccccc5Cl)c(F)c4)ccc3n2)C1 [Compound 77, N-(4-(2-(((1R,3R)-3-aminocyclopentyl)amino)quinazolin-6-yl)-2-fluorophenyl)-2-chlorobenzene-sulfonamide]",5 to 50 nM
9,CCc1cc(-c2ccc(NS(=O)(=O)c3ccccc3Cl)c(F)c2)cc2cnc(N[C@@H]3CC[C@@H](N)C3)nc12 [Compound 78],< 5 nM
10,"CCc1cc(-c2ccc(NS(=O)(=O)c3ccccc3Cl)c(F)c2)cc2cnc(N[C@@H]3CC[C@H](N)C3)nc12 [Compound 79, N-(4-(2-(((1R,3S)-3-aminocyclopentyl)amino)-8-ethylquinazolin-6-yl)-2-fluorophenyl)-2-chlorobenzene-sulfonamide]",5 to 50 nM
11,"NC12CCC(Nc3ncc4cc(-c5ccc(NS(=O)(=O)c6ccccc6Cl)c(F)c5)ccc4n3)(CC1)CC2 [Compound 81, N-(4-(2-((4-aminobicyclo[2.2. 2]octan-1-yl)amino)quinazolin-6-yl)-2-fluorophenyl)-2-chlorobenzene-sulfonamide]",< 5 nM
12,"CCc1cc(-c2ccc(NS(=O)(=O)c3ccccc3Cl)c(F)c2)cc2cnc(N[C@H]3CC4C[C@H](N)CC4C3)nc12 (stereo partly drawn) [Compound 83, N-(4-(2-(((2r,5r)-5-aminoocta-hydropentalen-2-yl)amino)-8-ethylquinazolin-6-yl)-2-fluorophenyl)-2-chlorobenzene-sulfonamide]",50 to 100 nM
13,"CCc1cc(-c2ccc(NS(=O)(=O)c3ccccc3Cl)c(F)c2)cc2cnc(N[C@H]3CC4C[C@@H](N)CC4C3)nc12 (stereo partly drawn) [Compound 84, N-(4-(2-(((2s,5s)-5-aminoocta-hydropentalen-2-yl)amino)-8-ethylquinazolin-6-yl)-2-fluorophenyl)-2-chlorobenzene-sulfonamide]",5 to 50 nM
14,"N[C@H]1CC2C[C@@H](Nc3ncc4cc(-c5ccc(NS(=O)(=O)c6ccccc6Cl)c(F)c5)ccc4n3)CC2C1 (stereo partly drawn) [Compound 85, N-(4-(2-(((2s,5s)-5-aminoocta-hydropentalen-2-yl)amino)quinazolin-6-yl)-2-fluorophenyl)-2-chlorobenzene-sulfonamide]",100 to 10000 nM
15,"NC12CCC(Nc3ncc4cc(-c5ccc(NS(=O)(=O)c6ccccc6Cl)c(F)c5)ccc4n3)(CC1)C2 [Compound 86, N-(4-(2-((4-aminobicyclo[2.2. 1]heptan-1-yl)amino)quinazolin-6-yl)-2-fluorophenyl)-2-chlorobenzene-sulfonamide]",50 to 100 nM
16,"CCc1cc(-c2ccc(NS(=O)(=O)c3ccccc3Cl)c(F)c2)cc2cnc(N[C@H]3CC[C@H](N4CCCC4)CC3)nc12 [Compound 88, 2-chloro-N-(4-(8-ethyl-2-(((lr,4r)-4-(pyrrolidin-1-yl)cyclohexyl)amino)quinazolin-6-yl)-2-fluorophenyl) benzene-sulfonamide]",< 5 nM
17,"CCc1cc(-c2cnc(NS(=O)(=O)c3ccccc3Cl)cc2OC)cc2cnc(N[C@H]3CC[C@H](N)CC3)nc12 [Compound 92, N-(5-(2-(((1r,4r)-4-aminocyclohexyl)amino)-8-ethylquinazolin-6-yl)-4-methoxypyridin-2-yl)-2-chlorobenzene-sulfonamide]",100 to 10000 nM
18,"CCc1cc(-c2cnc(NS(=O)(=O)c3ccccc3Cl)c(F)c2)cc2cnc(N[C@H]3CC[C@H](N(C)C)CC3)nc12 [Compound 95, 2-chloro-N-(5-(2-(((1r,4r)-4-(dimethylamino)cyclohexyl)amino)-8-ethylquinazolin-6-yl)-3-fluoropyridin-2-yl)benzenesulfonamide]",< 5 nM

# Second part, the molecule after the results:
row,EC50,SMILES
1,< 5 nM,"CCc1cc(-c2ccc(NS(=O)(=O)c3ccccc3Cl)nn2)cc2cnc(N[C@H]3CC[C@H](NC)CC3)nc12 [Compound 61, 2-chloro-N-(6-(8-ethyl-2-(((lr,4r)-4-(methylamino)cyclohexyl)amino)quinazolin-6-yl)pyridazin-3-yl)benzene-sulfonamide]"
2,5 to 50 nM,"CCc1cc(-c2nnc(NS(=O)(=O)c3ccccc3Cl)cc2OC)cc2cnc(N[C@H]3CC[C@H](N)CC3)nc12 [Compound 65, N-(6--(2-(((lr,4r)-4-aminocyclohexyl)amino)-8-ethylquinazolin-6-yl)-5-methoxypyridazin-3-yl)-2-chlorobenzene-sulfonamide]"
3,50 to 100 nM,"CCc1cc(-c2cc(OC)c(NS(=O)(=O)c3ccccc3Cl)nn2)cc2cnc(N[C@H]3CC[C@H](N)CC3)nc12 [Compound 66, N-(6-(2-(((1r,4r)-4-aminocyclohexyl)amino)-8-ethylquinazolin-6-yl)-4-methoxypyridazin-3-yl)-2-chlorobenzene-sulfonamide]"
4,50 to 100 nM,"Cc1nc(NS(=O)(=O)c2ccccc2Cl)ncc1-c1ccc2nc(N[C@H]3CC[C@H](N)CC3)ncc2c1 [Compound 68, N-(5-(2-(((1r,4r)-4-aminocyclohexyl)amino)quinazolin-6-yl)-4-methylpyrimidin-2-yl)-2-chlorobenzene-sulfonamide]"
5,100 to 10000 nM,"CCc1cc(-c2ccc(NS(=O)(=O)c3ccccc3Cl)c(F)c2)cc2cnc(N[C@@H]3CCC[C@H](N)C3)nc12 [Compound 72, N-(4-(2-(((1R,3S)-3-aminocyclohexyl)amino)-8-ethylquinazolin-6-yl)-2-fluorophenyl)-2-chlorobenzene-sulfonamide]"
6,5 to 50 nM,"O=S(=O)(Nc1ccc(-c2ccc3nc(N[C@H]4CCCNC4)ncc3c2)cc1F)c1ccccc1Cl [Compound 76, (S)-2-chloro-N-(2-fluoro-4-(2-(piperidin-3-ylamino)quinazolin-6-yl)phenyl) benzene-sulfonamide]"
7,5 to 50 nM,CCc1cc(-c2ccc(NS(=O)(=O)c3ccccc3Cl)c(F)c2)cc2cnc(N[C@H]3CC4C[C@H](N)CC4C3)nc12 (stereo partly drawn) [Compound 82]
8,< 5 nM,"CCc1cc(-c2ccc(NS(=O)(=O)c3ccccc3Cl)c(F)c2)cc2cnc(NC34CCC(N)(CC3)CC4)nc12 [Compound 87, N-(4-(2-((4-aminobicyclo[2.2. 2]octan-1-yl)-amino)-8-ethylquinazolin-6-yl)-2-fluorophenyl)-2-chlorobenzene-sulfonamide]"
9,100 to 10000 nM,"N[C@H]1CC[C@H](Nc2ncc3cc(-c4nnc(NS(=O)(=O)c5ccccc5Cl)s4)ccc3n2)CC1 [Compound 89, N-(5-(2-(((lr,4r)-4-aminocyclohexyl)amino)quinazolin-6-yl)-1,3,4-thiadiazol-2-yl)-2-chlorobenzene-sulfonamide]"
10,5 to 50 nM,"Cc1cc2nc(N[C@H]3CC[C@H](N)CC3)ncc2cc1-c1ccc(NS(=O)(=O)c2ccccc2Cl)c(F)c1 [Compound 90, N-(4-(2-(((1r,4r)-4-aminocyclohexyl)amino)-7-methylquinazolin-6-yl)-2-fluorophenyl)-2-chlorobenzene-sulfonamide]"
11,< 5 nM,"CCc1cc(-c2cc(F)c(NS(=O)(=O)c3ccccc3Cl)nc2C)cc2cnc(N[C@H]3CC[C@H](N(C)C)CC3)nc12 [Compound 97, 2-chloro-N-(5-(2-(((1r,4r)-4-(dimethylamino)cyclohexyl)amino)-8-ethylquinazolin-6-yl)-3-fluoro-6-methylpyridin-2-yl)benzenesulfonamide]"
12,< 5 nM,"CCc1cc(-c2ncc(NS(=O)(=O)c3ccccc3Cl)nc2OC)cc2cnc(N[C@H]3CC[C@H](N)CC3)nc12 [Compound 98, N-(5-(2-(((1r,4)-4-aminocyclohexyl)amino)-8-ethylquinazolin-6-yl)-6-methoxypyrazin-2-yl)-2-chlorobenzenesulfonamide]"
